# Legend:
# human volunteers = test: Initial use of low dose VIP by nasal instillation (earlier trials)
# From the text: (§1) 3A. Treatment: Human research approval for this study was provided by Copernicus Group IRB, Cary, N.C. […] Further, certain patients were excluded from the trial for the following reason. […] Patients with these findings were excluded from the formal replacement trial.
# [1] = tested on: patients with clinically-confirmed CIRS-WDB; test: Open-label VIP replacement trial: laboratory parameters (CLIA labs); details: for Estra-M (estradiol in males) mean value: Control 23.1, Base 36, AC2 30.3; for VIP level mean value: Control 28.9, Base 9.3, AC2 14.4; for Estra-F (estradiol in females) mean value: Control 29.8, Base 28, AC2 26.6; for Lipase mean value: Control 30.1, Base 24.2, AC2 30.8; for MSH mean value: Control 37.2, Base 9.4, AC2 16.8; for VIT D (25-OH vitamin D) mean value: Control 38.4, Base 19.4, AC2 24.1; for VEGF mean value: Control 65, Base 61, AC2 95.3; for Test-F (testosterone in females) mean value: Control 282, Base 20, AC2 18.9; for MMP-9 mean value: Control 332, Base 628, AC2 358; for Test-M (testosterone in males) mean value: Control 415, Base 298.8, AC2 293.5; for TGF (TGF beta-1) mean value: Control 2380, Base 12579, AC2 13015; for C4a mean value: Control 2830, Base 8346, AC2 4662
# From the text: as §1
# (§2) All patients enrolled in the trial were confirmed to be exposed to WDB by observation of illness acquisition solely following water intrusion followed by either (1) visible microbial growth; (2) specification of molds by QPCR DNA testing; or (3) musty smells. All patients met the case criteria established by the GAO (US GAO 2008). Patients were known to the clinic with a 36-month mean duration of prior treatment following exposure to WDB.
# (§3) For the experimental protocol, subjects self-administered 50 mcg VIP (Aviptadil; Bachem AG, Switzerland) four times a day via nasal aerosol and returned to the clinic to review symptoms and clinical course, and undergo interval physical exam and laboratory exam at scheduled intervals. Clinical data were collected before any treatments, or baseline (BASE); after all other treatments and before VIP (AC2); after 12 months of VIP (12M); and after 18 months of VIP (18M). Data collection included physician recorded symptoms in a medical history (Table 2); levels of VIP, MSH, C4a, TGF beta-1, VEGF, MMP9, estradiol, testosterone, 25-0H vitamin D, lipase, CBC and CMP. Measurement of CD4+CD25+T regulatory (Treg) cells was not available at BASE; Treg testing was performed at AC2 and 18 month time periods. Laboratory testing for all analytes was performed by high complexity CLIA-certified labs including LabCorp and Quest Diagnostics. All data were compared to either established normative values or values from prior testing of healthy control populations (N=850) performed at this clinic. Data were analyzed by two-sample T-tests for each of two study time points and one-sample T-tests that compared the specified data to the corresponding historical control values. A Bonferroni correction to the p-values was done to control the experiment-wise error rate. A p value of <0.001 was chosen as the determinant of significance for the study.
# CD4+CD25+ Treg cells = test: Flow cytometry of CD4+CD25+ T regulatory (Treg) cells; format: in vivo, human; details: 18 month versus AC2, increase from a mean of 8.9
# From the text: CD4^+ CD25^+ Treg cells in CIRS patients can be measured by flow cytometry. CD4^+ CD25^+ Treg cells mature in response to an inflammatory stimulation, and in particular, in response to increasing levels of TGF-β1. Matured CD4^+ CD25^+ Treg cells migrate to tissues to suppress inflammation and autoimmunity. However, if there is a pre-existing inflammatory response ongoing in tissues, CD4^+ CD25^+ Treg cells may turn into autoreactive T cells. Therefore, the determination of CD4^+ CD25^+ Treg cells in blood as well as in tissues may be helpful in assessing the status of inflammation in CIRS patients.
# [2] = tested on: patients with clinically-confirmed CIRS-WDB; test: Open-label VIP replacement trial: physician recorded symptoms; format: in vivo, human; details: for SX (symptoms) mean value: Control 2.9, Base 29.8, AC2 17.8
# From the text: as §1, §2, §3
# [3] = tested on: patients with clinically-confirmed CIRS-WDB; test: Stress echocardiography, pulmonary artery systolic pressure (PASP) in exercise; format: in vivo, human; details: all subjects, within two months; entry criterion rise exceeding 8 mm Hg versus resting PASP
# From the text: Entry criteria also included a rise in pulmonary artery systolic pressure (PASP) in exercise as measured by stress echocardiography that exceeded 8 mm Hg as compared to resting PASP. Standard Bruce protocols were employed during stress echocardiography testing. […] All patients achieved target heart rate; none developed ischemic changes on EKG or chest pain during stress testing.
# [4] = tested on: patients with clinically-confirmed CIRS-WDB; test: Open-label VIP replacement trial: safety and tolerability
# From the text: as §3
# [5] = initial use of low dose VIP by nasal instillation
smiles,measurement,setting,value
"CC[C@H](C)[C@H](NC(=O)[C@H](CO)NC(=O)[C@H](CC(N)=O)NC(=O)[C@H](CC(C)C)NC(=O)[C@H](Cc1ccc(O)cc1)NC(=O)[C@H](CCCCN)NC(=O)[C@H](CCCCN)NC(=O)[C@@H](NC(=O)[C@H](C)NC(=O)[C@H](CCSC)NC(=O)[C@H](CCC(N)=O)NC(=O)[C@H](CCCCN)NC(=O)[C@H](CCCNC(=N)N)NC(=O)[C@H](CC(C)C)NC(=O)[C@H](CCCNC(=N)N)NC(=O)[C@@H](NC(=O)[C@H](Cc1ccc(O)cc1)NC(=O)[C@H](CC(N)=O)NC(=O)[C@H](CC(=O)O)NC(=O)[C@@H](NC(=O)[C@H](Cc1ccccc1)NC(=O)[C@@H](NC(=O)[C@H](C)NC(=O)[C@H](CC(=O)O)NC(=O)[C@H](CO)NC(=O)[C@@H](N)Cc1c[nH]cn1)C(C)C)[C@@H](C)O)[C@@H](C)O)C(C)C)C(=O)N[C@@H](CC(C)C)C(=O)N[C@@H](CC(N)=O)C(N)=O [VIP, Aviptadil]",Safety of low dose VIP by nasal instillation,"human volunteers; human volunteers, initial use",shown to be safe
same,Effect on pulmonary artery responses to exercise,human volunteers; [5],blunted accentuated pulmonary artery responses to exercise
same,Effect on symptoms,human volunteers; [5],prompt reduction in symptoms
same,Inflammatory parameters versus controls,"[1]; VIP nasal spray, open-label trial",not significantly different from controls
same,Estra-M (estradiol in males) mean value,[1]; after 12 months of VIP,27.7
same,VIP level mean value,[1]; after 12 months of VIP,12.3
same,Estra-F (estradiol in females) mean value,[1]; after 12 months of VIP,27.8
same,Lipase mean value,[1]; after 12 months of VIP,30.7
same,MSH mean value,[1]; after 12 months of VIP,17.3
same,VIT D (25-OH vitamin D) mean value,[1]; after 12 months of VIP,38.3
same,VEGF mean value,[1]; after 12 months of VIP,73.4
same,Test-F (testosterone in females) mean value,[1]; after 12 months of VIP,22.6
same,MMP-9 mean value,[1]; after 12 months of VIP,302
same,Test-M (testosterone in males) mean value,[1]; after 12 months of VIP,546.7
same,TGF (TGF beta-1) mean value,[1]; after 12 months of VIP,5359
same,C4a mean value,[1]; after 12 months of VIP,5679
same,Estra-M (estradiol in males) mean value,[1]; after 18 months of VIP,22.8
same,VIP level mean value,[1]; after 18 months of VIP,16.6
same,Estra-F (estradiol in females) mean value,[1]; after 18 months of VIP,28.9
same,Lipase mean value,[1]; after 18 months of VIP,27.9
same,MSH mean value,[1]; after 18 months of VIP,18.2
same,VIT D (25-OH vitamin D) mean value,[1]; after 18 months of VIP,39.3
same,VEGF mean value,[1]; after 18 months of VIP,66.2
same,Test-F (testosterone in females) mean value,[1]; after 18 months of VIP,25.2
same,MMP-9 mean value,[1]; after 18 months of VIP,290
same,Test-M (testosterone in males) mean value,[1]; after 18 months of VIP,511.5
same,TGF (TGF beta-1) mean value,[1]; after 18 months of VIP,4040
same,C4a mean value,[1]; after 18 months of VIP,3306
same,"Patient values versus controls by the end of the trial (symptoms, MSH, VIP, MMP9, C4a, TGF-β1, 25-OH Vitamin D, testosterone in males)","[1]; end of the trial, baseline differed from controls at p<0.01","not statistically different from controls, except for VIP and MSH"
same,"CD4+CD25+ Treg cells, mean",CD4+CD25+ Treg cells,22.5
same,Quality of life,"[2]; 20 patients, open-label trial",enhanced quality of life
same,SX (symptoms) mean value,"[2]; after 12 months of VIP, 50 mcg four times a day nasal aerosol",5.5
same,SX (symptoms) mean value,[2]; after 18 months of VIP,3.4
same,Symptom reduction versus controls,[2]; all treated patients,Symptom reduction to equal those of controls
same,Elevated PASP in stress exercise testing reduced to,[3],< 8 mm Hg
same,Tolerability,"[4]; 18 month study, 20 patients, nasal aerosol",tolerated the drug well
same,Changes in CBC and CMP,[4]; during the trial,No changes
same,Dropouts due to adverse effects,[4]; over the course of the 18 month study,no dropouts due to adverse effects
same,"Elevated lipase, cases",[4]; resolved without cessation of use of VIP,One patient had a transient elevated level of lipase without abdominal pain
same,Lipase levels during the trial,[4]; whole cohort,did not rise
